In article PMC3933693, “Novel Inhibitors of Mitochondrial sn-Glycerol 3-phosphate Dehydrogenase” (PLoS ONE, 2014):
Where “and” joins values, the source holds several entries; their conditions need not be identical. Identical values can stand only once.

Tests used:
STHdhQ7 cells = assay: Live cell imaging of iGP-1 fluorescence (ability to cross cellular membranes); format: cell-based; conditions: 100 µM; intrinsic fluorescence in live cells
Procedure: The ability of iGP-1 to cross cellular membranes was evaluated in STHdhQ7 cells cultured at 33°C as described. Cells were seeded on collagen-coated, Lab-Tek chambered coverglass (Nunc) 48 h before use. Prior to imaging, cells were cultured for 45 min with 65 nM LysoTracker Red ±250 nM bafilomycin A1. Medium was then replaced with imaging buffer (120 mM NaCl, 3.5 mM KCl, 0.4 mM KH2PO4, 20 mM TES, 5 mM NaHCO3, 1.2 mM Na2SO4, 1.5 mM CaCl2, 0.5 mM MgCl2, 2 mM Glucose, and 0.2% BSA, pH 7.4) containing DMSO, 250 nM bafilomycin A1 or 100 µM iGP-1. Cells were imaged on a Nikon Eclipse Ti-PFS inverted microscope equipped with a Cascade 512B camera (Photometrics, Tucson, AZ), a Plan Fluor 100X/1.3 oil objective, an LB-LS17 Xe-arc light source (attenuated), 10–3 excitation and emission filter wheels (Sutter Instruments, Novato, CA), and an MS-2000 linear encoded motorized stage (ASI, Eugene, OR). The filter sets, given as excitation, dichroic mirror, emission in nm/bandwidth, were, for iGP-1 (1 s exposure), 340/26, 409, 460/80 and for LysoTracker Red (100 ms exposure), 543/22, 562, 588/21 (all from Semrock, Rochester, NY). Image acquisition was controlled by NIS Elements 4.0 (Nikon, Melville, NY). Images of cell-free wells containing buffer with DMSO or iGP-1 were used for background subtraction in Image Analyst MKII (Novato, CA).

mGPDH = target: T1, mGPDH (Rattus norvegicus, UniProt P35571); assay: mGPDH enzymatic activity (DCPIP-linked reduction by glycerol phosphate) in frozen-thawed skeletal muscle mitochondria; format: biochemical
T1 construct: from tissue; host or cells: skeletal muscle mitochondria
T1 sequence (P35571 43-727): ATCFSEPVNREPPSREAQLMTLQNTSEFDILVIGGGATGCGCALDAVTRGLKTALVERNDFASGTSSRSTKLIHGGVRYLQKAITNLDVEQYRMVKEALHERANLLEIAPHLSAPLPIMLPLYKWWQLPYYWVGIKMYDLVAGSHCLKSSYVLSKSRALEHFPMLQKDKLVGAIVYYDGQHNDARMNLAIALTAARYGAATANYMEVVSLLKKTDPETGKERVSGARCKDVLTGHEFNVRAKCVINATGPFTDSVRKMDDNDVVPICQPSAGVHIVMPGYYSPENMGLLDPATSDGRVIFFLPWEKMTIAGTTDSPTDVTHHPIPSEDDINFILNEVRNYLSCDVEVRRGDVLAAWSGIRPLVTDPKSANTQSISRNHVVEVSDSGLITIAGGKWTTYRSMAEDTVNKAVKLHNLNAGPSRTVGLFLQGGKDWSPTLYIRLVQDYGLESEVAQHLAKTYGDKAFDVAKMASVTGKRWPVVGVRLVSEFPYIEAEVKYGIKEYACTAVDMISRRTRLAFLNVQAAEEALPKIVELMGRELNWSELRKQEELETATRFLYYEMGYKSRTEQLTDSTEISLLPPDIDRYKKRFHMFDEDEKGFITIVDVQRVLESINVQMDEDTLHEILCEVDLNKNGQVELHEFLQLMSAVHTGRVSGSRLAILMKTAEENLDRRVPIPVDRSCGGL
Procedure: Activity of mGPDH in frozen-thawed skeletal muscle mitochondria was measured as 2,6-dichlorophenolindophenol (DCPIP)-linked reduction by glycerol phosphate as described previously in the presence of 1 µM free calcium. Linear rates of change in absorbance (λ = 600 nm) were measured on the PHERAstar microplate reader and converted to rates of DCPIP reduction using an extinction coefficient of 21 mM^−1 ⋅ cm^−1 and a calculated pathlength of 0.6 cm. Kinetic parameters and inhibitor constants were determined by co-varying glycerol phosphate and novel inhibitors according to recommended procedures and calculated for each data set using GraphPad Prism. Vmax and Km were determined using hyperbolic curves fit to the Michaelis-Menten equation: rate = (Vmax ⋅ [substrate]) ⋅ (K m+[substrate])^ −1. Hill Slope and IC50 were determined using unconstrained, sigmoidal dose-response curve fits of % remaining activity against concentration of iGP. K ic and K iu were determined using plots of rate^−1 vs iGP and GP ⋅ rate^−1 vs iGP, respectively. Linear regression analysis yielded an average x-coordinate at which the best-fit lines intersect. These x-coordinates correspond to -K ic and -K iu in their respective plots. The apparent Vmax of mGPDH is dependent upon the concentration of DCPIP used, [38]. Therefore, to determine the maximal activity of mGPDH in isolated synaptosomes, DCPIP was replaced by 1 mM potassium ferricyanide and linear rates of change in absorbance (λ = 420 nm) were converted to rates of ferricyanide reduction using an extinction coefficient of 1.04 mM^−1 ⋅ cm^−1 and a calculated pathlength of 0.6 cm.

SMILES: O=C(O)CCC(=O)Nc1ccc(-c2nc3ccccc3[nH]2)cc1 [iGP-1]
- cell permeability (STHdhQ7 cells): readily crosses cellular membranes
- mGPDH Activity Hill Slope (mGPDH; 1 µM free calcium): 0.92 and 0.92±0.08
- IC50 (mGPDH; 1 µM free calcium, Fig. 9A): 6.3 ± 0.7 µM
- effect on mGPDH enzymatic activity (mGPDH; all concentrations tested, Fig. 5): significantly inhibited
- K iu (uncompetitive inhibitor dissociation constant) (mGPDH; co-varying glycerol phosphate and inhibitor): 14.6 ± 1.5 µM
- Ki (mGPDH; co-varying glycerol phosphate and inhibitor, read-out: K ic (competitive inhibitor dissociation constant)): 9.5 ± 1.1 µM
